Laboratory results as given in paper PMC7955072 (Nature Communications, 2021).
Entries after “also recorded” stand apart in the source; their conditions may differ.

Assays:
[1] = molecular target: C-terminal truncated ScIleRS (residues 1-984) (Saccharomyces cerevisiae, UniProt P09436); assay: Fluorescence-based thermal shift assay (TSA), C-terminal truncated ScIleRS; type: binding; details: protein bound with copurified Ile-AMP
Method: The binding of RM-A to IleRS and the impact of intermediate analogue (Ile-AMS, MedChemExpress) or substrates on binding were evaluated by the fluorescence-based thermal shift assay (TSA). Ligand binding usually stabilizes the protein during the thermal denaturation process, and tighter binding usually causes a larger positive shift in the protein melting temperature (Tm)[45]. […]. The mixtures were incubated at 25 °C for 10 min and then heated from 25 °C to 95 °C at a rate of 1 °C/min. The fluorescence intensity was recorded by a StepOnePlus Real-Time PCR instrument (Life Technologies), and the maximums of the first derivatives were determined to calculate Tm values. Each Tm value was an average of triple assays.

[2] = molecular target: full-length ScIleRS (Saccharomyces cerevisiae, UniProt P09436); assay: Fluorescence-based thermal shift assay (TSA), full-length ScIleRS wild-type; type: binding; details: for increase of Tm value of ScIleRS: single ligand (50 μM RM-A, 2 mM L-isoleucine, 2 mM ATP or 50 μM Ile-AMS), Tm without ligand approximately 54 °C; for △Tm: Wild-type, difference between Tm with and without ligands
Method: (§1) Ligand binding usually stabilizes the protein during the thermal denaturation process, and tighter binding usually causes a larger positive shift in the protein melting temperature (Tm)[45]. […] The fluorescence intensity was recorded by a StepOnePlus Real-Time PCR instrument (Life Technologies), and the maximums of the first derivatives were determined to calculate Tm values. Each Tm value was an average of triple assays.

[3] = molecular target: ScIleRS R462A (Saccharomyces cerevisiae, UniProt P09436, R462A); type: binding
Method: as §1

[4] = molecular target: ScIleRS F48Y (Saccharomyces cerevisiae, UniProt P09436, F48Y); type: binding
Method: as §1

[5] = molecular target: ScIleRS R460A (Saccharomyces cerevisiae, UniProt P09436, R460A); type: binding
Method: as §1

[6] = molecular target: ScIleRS R454A (Saccharomyces cerevisiae, UniProt P09436, R454A); type: binding
Method: as §1

[7] = molecular target: ScIleRS P90A (Saccharomyces cerevisiae, UniProt P09436, P90A); type: binding
Method: as §1

[8] = molecular target: ScIleRS W402A (Saccharomyces cerevisiae, UniProt P09436, W402A); type: binding
Method: as §1

[9] = molecular target: ScIleRS F191A (Saccharomyces cerevisiae, UniProt P09436, F191A); type: binding
Method: as §1

[10] = molecular target: ScIleRS W456A (Saccharomyces cerevisiae, UniProt P09436, W456A); type: binding
Method: as §1

[11] = molecular target: ScIleRS W529A (Saccharomyces cerevisiae, UniProt P09436, W529A); type: binding
Method: as §1

[12] = molecular target: ScIleRS Y571A (Saccharomyces cerevisiae, UniProt P09436, Y571A); type: binding
Method: as §1

[13] = molecular target: ScIleRS D527A (Saccharomyces cerevisiae, UniProt P09436, D527A); type: binding
Method: as §1

[14] = molecular target: ScIleRS F48A (Saccharomyces cerevisiae, UniProt P09436, F48A); type: binding
Method: as §1

[15] = molecular target: ScIleRS V89A (Saccharomyces cerevisiae, UniProt P09436, V89A); type: binding
Method: as §1

[16] = molecular target: ScIleRS del_KMSKS (Saccharomyces cerevisiae, UniProt P09436, DEL601-605/K608S/L607G); type: binding
Method: as §1

[17] = molecular target: ScIleRS T572A (Saccharomyces cerevisiae, UniProt P09436, T572A); type: binding
Method: as §1

[18] = molecular target: ScIleRS W449A (Saccharomyces cerevisiae, UniProt P09436, W449A); type: binding
Method: as §1

[19] = tested on: IleRS; details: cited from earlier work

Chain of full-length ScIleRS (P09436 whole entry): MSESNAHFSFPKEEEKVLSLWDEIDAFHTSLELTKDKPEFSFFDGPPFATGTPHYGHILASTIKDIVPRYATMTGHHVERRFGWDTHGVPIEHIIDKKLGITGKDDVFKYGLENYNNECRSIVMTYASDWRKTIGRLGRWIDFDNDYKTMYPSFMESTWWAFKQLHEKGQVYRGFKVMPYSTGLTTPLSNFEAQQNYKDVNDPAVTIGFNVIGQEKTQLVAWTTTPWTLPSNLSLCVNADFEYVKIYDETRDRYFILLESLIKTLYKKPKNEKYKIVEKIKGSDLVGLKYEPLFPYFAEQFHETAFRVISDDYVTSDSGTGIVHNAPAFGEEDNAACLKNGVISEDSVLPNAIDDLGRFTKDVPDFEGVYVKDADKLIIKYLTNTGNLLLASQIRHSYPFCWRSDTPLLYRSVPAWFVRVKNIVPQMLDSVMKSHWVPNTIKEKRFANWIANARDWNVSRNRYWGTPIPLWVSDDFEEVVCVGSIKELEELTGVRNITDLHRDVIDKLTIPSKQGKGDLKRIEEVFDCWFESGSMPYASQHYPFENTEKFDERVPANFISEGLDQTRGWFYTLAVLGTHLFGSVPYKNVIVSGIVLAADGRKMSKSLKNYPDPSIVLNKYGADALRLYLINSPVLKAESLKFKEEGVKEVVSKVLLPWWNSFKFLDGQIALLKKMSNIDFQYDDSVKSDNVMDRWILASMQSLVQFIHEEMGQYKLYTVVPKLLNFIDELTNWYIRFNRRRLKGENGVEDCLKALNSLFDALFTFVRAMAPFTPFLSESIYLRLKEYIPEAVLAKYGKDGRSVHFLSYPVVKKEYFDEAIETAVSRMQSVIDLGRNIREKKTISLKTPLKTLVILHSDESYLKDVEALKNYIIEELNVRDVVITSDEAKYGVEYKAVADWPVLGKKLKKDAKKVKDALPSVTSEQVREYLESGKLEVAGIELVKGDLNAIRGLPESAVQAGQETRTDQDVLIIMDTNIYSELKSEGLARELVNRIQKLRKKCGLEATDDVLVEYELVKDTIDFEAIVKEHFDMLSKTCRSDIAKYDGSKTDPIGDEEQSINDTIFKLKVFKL
Chain of ScIleRS W456A (P09436 whole entry W456A): as the sequence (P09436 whole entry) above, with W456A counted along it
Chain of ScIleRS del_KMSKS (P09436 other isoform, or with tags, fused parts or gaps DEL601-605/L607G/K608S): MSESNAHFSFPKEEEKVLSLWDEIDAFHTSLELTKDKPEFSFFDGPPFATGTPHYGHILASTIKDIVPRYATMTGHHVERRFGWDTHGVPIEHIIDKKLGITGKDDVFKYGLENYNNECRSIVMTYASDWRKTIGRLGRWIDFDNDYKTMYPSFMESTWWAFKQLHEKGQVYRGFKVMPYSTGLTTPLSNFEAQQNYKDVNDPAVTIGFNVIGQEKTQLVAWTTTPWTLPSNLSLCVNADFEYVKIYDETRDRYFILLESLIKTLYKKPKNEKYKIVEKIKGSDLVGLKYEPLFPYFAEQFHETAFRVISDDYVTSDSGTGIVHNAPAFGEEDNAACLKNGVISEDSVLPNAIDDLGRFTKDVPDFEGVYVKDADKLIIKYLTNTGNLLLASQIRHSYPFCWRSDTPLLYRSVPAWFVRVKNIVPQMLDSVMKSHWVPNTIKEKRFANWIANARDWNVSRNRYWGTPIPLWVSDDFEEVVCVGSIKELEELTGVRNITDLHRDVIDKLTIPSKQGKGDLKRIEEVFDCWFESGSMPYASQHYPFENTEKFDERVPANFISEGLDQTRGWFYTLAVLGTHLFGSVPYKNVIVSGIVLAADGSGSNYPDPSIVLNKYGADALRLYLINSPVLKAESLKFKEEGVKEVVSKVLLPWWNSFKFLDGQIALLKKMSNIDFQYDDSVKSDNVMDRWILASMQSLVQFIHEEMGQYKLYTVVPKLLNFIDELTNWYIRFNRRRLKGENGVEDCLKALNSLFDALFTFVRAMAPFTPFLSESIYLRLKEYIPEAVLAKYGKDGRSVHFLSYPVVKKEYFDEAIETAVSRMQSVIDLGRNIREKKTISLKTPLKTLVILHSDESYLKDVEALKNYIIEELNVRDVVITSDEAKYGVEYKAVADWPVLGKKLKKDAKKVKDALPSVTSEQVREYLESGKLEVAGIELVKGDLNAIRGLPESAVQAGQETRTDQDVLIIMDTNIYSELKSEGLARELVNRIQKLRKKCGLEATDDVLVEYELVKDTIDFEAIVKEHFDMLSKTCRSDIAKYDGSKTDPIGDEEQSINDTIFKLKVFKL
Chain of C-terminal truncated ScIleRS (residues 1-984) (P09436 1-984): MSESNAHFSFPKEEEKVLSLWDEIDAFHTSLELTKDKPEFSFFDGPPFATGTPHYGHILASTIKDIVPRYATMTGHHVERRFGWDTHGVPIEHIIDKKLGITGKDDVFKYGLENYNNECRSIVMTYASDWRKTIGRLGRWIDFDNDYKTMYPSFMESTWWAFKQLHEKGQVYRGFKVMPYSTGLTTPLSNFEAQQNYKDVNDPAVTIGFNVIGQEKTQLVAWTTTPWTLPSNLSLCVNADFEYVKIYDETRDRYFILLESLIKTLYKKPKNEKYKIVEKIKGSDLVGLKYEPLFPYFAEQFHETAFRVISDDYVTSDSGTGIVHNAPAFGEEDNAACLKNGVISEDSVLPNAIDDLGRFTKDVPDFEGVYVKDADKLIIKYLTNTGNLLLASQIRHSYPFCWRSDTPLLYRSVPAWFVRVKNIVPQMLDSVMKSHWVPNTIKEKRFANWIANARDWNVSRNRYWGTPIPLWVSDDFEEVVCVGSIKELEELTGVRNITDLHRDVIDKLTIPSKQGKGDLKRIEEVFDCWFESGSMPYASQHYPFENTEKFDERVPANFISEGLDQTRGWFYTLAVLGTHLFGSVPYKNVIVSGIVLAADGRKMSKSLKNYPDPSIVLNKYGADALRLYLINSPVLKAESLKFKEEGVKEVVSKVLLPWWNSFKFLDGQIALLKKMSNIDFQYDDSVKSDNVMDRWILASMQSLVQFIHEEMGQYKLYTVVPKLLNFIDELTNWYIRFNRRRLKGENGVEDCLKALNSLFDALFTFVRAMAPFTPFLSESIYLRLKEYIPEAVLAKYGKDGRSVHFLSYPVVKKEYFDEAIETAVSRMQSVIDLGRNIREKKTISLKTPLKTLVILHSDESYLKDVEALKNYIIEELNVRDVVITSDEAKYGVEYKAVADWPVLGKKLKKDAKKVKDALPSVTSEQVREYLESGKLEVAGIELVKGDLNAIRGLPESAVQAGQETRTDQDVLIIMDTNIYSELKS
Chain of ScIleRS R454A (P09436 whole entry R454A): as the sequence (P09436 whole entry) above, with R454A counted along it
Chain of ScIleRS W449A (P09436 whole entry W449A): as the sequence (P09436 whole entry) above, with W449A counted along it
Chain of ScIleRS W529A (P09436 whole entry W529A): as the sequence (P09436 whole entry) above, with W529A counted along it
Chain of ScIleRS D527A (P09436 whole entry D527A): as the sequence (P09436 whole entry) above, with D527A counted along it
Chain of ScIleRS P90A (P09436 whole entry P90A): as the sequence (P09436 whole entry) above, with P90A counted along it
Chain of ScIleRS W402A (P09436 whole entry W402A): as the sequence (P09436 whole entry) above, with W402A counted along it
Chain of ScIleRS F48Y (P09436 whole entry F48Y): as the sequence (P09436 whole entry) above, with F48Y counted along it
Chain of ScIleRS T572A (P09436 whole entry T572A): as the sequence (P09436 whole entry) above, with T572A counted along it
Chain of ScIleRS V89A (P09436 whole entry V89A): as the sequence (P09436 whole entry) above, with V89A counted along it
Chain of ScIleRS R462A (P09436 whole entry R462A): as the sequence (P09436 whole entry) above, with R462A counted along it
Chain of ScIleRS Y571A (P09436 whole entry Y571A): as the sequence (P09436 whole entry) above, with Y571A counted along it
Chain of ScIleRS R460A (P09436 whole entry R460A): as the sequence (P09436 whole entry) above, with R460A counted along it
Chain of ScIleRS F191A (P09436 whole entry F191A): as the sequence (P09436 whole entry) above, with F191A counted along it
Chain of ScIleRS F48A (P09436 whole entry F48A): as the sequence (P09436 whole entry) above, with F48A counted along it

Row | Compound | Tm value of C-terminal truncated ScIleRS [1] | increase of Tm value of ScIleRS [2] | △Tm [3] [°C] | △Tm [4] [°C] | △Tm [5] [°C] | △Tm [6] [°C] | △Tm [7] [°C] | △Tm [8] [°C] | △Tm [9] [°C] | △Tm [10] [°C] | △Tm [11] [°C] | △Tm [12] [°C] | △Tm [13] [°C] | △Tm [14] [°C] | △Tm [15] [°C] | △Tm [16] [°C] | △Tm [17] [°C] | △Tm [18] [°C] | △Tm [2] [°C] | also measured
1 | Nc1ncnc2c1ncn2[C@@H]1O[C@H](COP(=O)(O)OP(=O)(O)OP(=O)(O)O)[C@@H](O)[C@H]1O [ATP] | not improved | approximately 4 °C |  |  |  |  |  |  |  |  |  |  |  |  |  |  |  |  |  | 
2 | CC[C@H](C)[C@H](N)C(=O)NS(=O)(=O)OC[C@H]1O[C@@H](n2cnc3c(N)ncnc32)[C@H](O)[C@@H]1O [Ile-AMS] |  | ~23 °C | 26 | 21.6 | 25.7 | 21.6 | 22.1 | 24.2 | 26.5 | 18.8 | 18.4 | 24.6 | 24.2 | 12.5 | 24.7 | 20.2 | 22.7 | 24.9 | 23.4 | 
3 | CC[C@H](C)[C@H](N)C(=O)O [L-isoleucine] | not improved | ~8 °C | 4 | 4.4 | 3.1 | 6.6 | 6.4 | 6.9 | 8.3 | 0.7 | 1.9 | 4 | 5.2 | 0.2 | 4.7 | 8.5 | 4.8 | 7.8 | 7.9 | 
4 | CC(/C=C/[C@H](O)[C@@H](C)/C=C/C(=O)O)=C\C[C@H]1O[C@@]2(CC[C@H](C)[C@H](/C=C/C(C)=C/C(=O)O)O2)CC[C@@H]1C [SF-A, Spirofungin A] |  |  |  |  |  |  |  |  |  |  |  |  |  |  |  |  |  |  |  | inhibition of IleRS [19]: only weakly inhibit
5 | reveromycin T [RM-T] |  |  |  |  |  |  |  |  |  |  |  |  |  |  |  |  |  |  |  | inhibitory activity against IleRS compared with RM-A [19]: stronger inhibitory activity; also recorded: even higher inhibitory activity
